The target in this experiment is T1, PKA-phosphorylated RyR2 (Homo sapiens, UniProt Q92736).
T1 construct: Cardiac SR membranes were prepared as previously described; from tissue; host or cells: cardiac sarcoplasmic reticulum (heart muscle microsomes)
The experiment can be described thus: Calstabin2 rebinding assay: binding of calstabin2 to PKA-phosphorylated RyR2 (cardiac SR, immunoblot). The conditions noted are these: 100 nM compound; immunoblot with calstabin2 antibody. As to the method:
Cardiac SR membranes were prepared as previously described (Marx et al., 2000; Kaftan et al., Circ. Res., 1996, 78:990-97). Immunoblotting of microsomes (50 μg) was performed as described, with anti-calstabin antibody (1:1,000) (Jayaraman et al., J. Biol. Chem., 1992, 267:9474-77) for 1 hr at room temperature (Reiken et al., Circulation, 107:2459-66, 2003). After incubation with HRP-labeled anti-rabbit IgG (1:5,000 dilution; Transduction Laboratories, Lexington, Ky.), the blots were developed using ECL (Amersham Pharmacia, Piscataway, N.J.) and detected on x-ray film, or exposed to secondary antibodies labeled with infrared Dye and visualized on equipment from Li-Cor Biosciences (model Odyssey). Unless otherwise stated, compounds were tested at a concentration of 100 nM. A representative calstabin2 binding assay is presented below.
A. PKA phosphorylation of cardiac sarcoplasmic reticulum (CSR)
B. Reaction mixture was set up in 1.5 ml microfuge tube. 200 μg of cardiac SR were added to a reaction mix of kinase buffer, PKA and ATP to a final volume of 100 (Reaction mix below). ATP was added last to initiate the reaction.
20 μl Sample (cardiac SR, 2 or 10 μg/μl) 10 μl=10× Kinase buffer (80 mM MgCl2, 100 mM EGTA, 500 mM Tris/PIPES), pH=7.0
20 μl PKA (2units/ul) (Sigma # P2645)
40 μl=distilled H2O • 1. The tubes were incubated at 30° C. for 30 minutes. • 2. The reaction mix was then transferred to 0.5 ml thick walled glass tubes. • 3. The glass tubes containing the reaction mix were centrifuged for 10 min at 50,000×g in Sorvall Centrifuge RCM120EX using S120AT3 rotor. Centrifugation at 50,000×g for 10 min is sufficient to isolate the microsomes. • 4. The resulting pellet was washed 4 times with binding buffer (10 mM Imidazol 300 mM Sucrose, pH=7.4). Each time 100111 of 1× binding buffer was added to the tube to wash the pellet. The pellet was resuspended by flushing up and down using the pipette tip. After the last spin 501.11 of binding buffer was added and the pellets from all tubes were pooled. The reaction was stored at −20° C. • 5. Phosphorylation was confirmed by separating approximately 10 μg of CSR by 6% Polyacylamide gel electrophoresis (PAGE) and analyzing the immunoblots for both total RyR (5029 Ab, 1:3000 dilution or Monoclonal Ab from Affinity Bioreagents, Cat # MA3-916, 1:2000 dilution) and PKA phosphorylated RyR2 (P2809 Ab, 1:10000 dilution). • 6. Aliquots can be stored at −80 C.
C. Calstabin Rebinding Assay
• 1. PKA-phosphorylated CSR (approximately 20 μg) was incubated with 250 nM Calstabin 2 in 100111 binding buffer (as described above) with or without compounds. • 2. […] Calstabin2 binding was detected with anti-FKBP (Jayaraman et al., J. Biol. Chem. 1992; 267:9474-77, 1:2000) primary antibody and appropriate secondary antibody.
(Immunoblotting shows a protein as a band on a membrane.)

Data on 1 compound can be found in patent US20130281512A1, “AGENTS FOR TREATING DISORDERS INVOLVING MODULATION OF RYANODINE RECEPTORS” (LES LABORATOIRES SERVIER, priority 2012, published 2013).

T1 sequence (Q92736 whole entry): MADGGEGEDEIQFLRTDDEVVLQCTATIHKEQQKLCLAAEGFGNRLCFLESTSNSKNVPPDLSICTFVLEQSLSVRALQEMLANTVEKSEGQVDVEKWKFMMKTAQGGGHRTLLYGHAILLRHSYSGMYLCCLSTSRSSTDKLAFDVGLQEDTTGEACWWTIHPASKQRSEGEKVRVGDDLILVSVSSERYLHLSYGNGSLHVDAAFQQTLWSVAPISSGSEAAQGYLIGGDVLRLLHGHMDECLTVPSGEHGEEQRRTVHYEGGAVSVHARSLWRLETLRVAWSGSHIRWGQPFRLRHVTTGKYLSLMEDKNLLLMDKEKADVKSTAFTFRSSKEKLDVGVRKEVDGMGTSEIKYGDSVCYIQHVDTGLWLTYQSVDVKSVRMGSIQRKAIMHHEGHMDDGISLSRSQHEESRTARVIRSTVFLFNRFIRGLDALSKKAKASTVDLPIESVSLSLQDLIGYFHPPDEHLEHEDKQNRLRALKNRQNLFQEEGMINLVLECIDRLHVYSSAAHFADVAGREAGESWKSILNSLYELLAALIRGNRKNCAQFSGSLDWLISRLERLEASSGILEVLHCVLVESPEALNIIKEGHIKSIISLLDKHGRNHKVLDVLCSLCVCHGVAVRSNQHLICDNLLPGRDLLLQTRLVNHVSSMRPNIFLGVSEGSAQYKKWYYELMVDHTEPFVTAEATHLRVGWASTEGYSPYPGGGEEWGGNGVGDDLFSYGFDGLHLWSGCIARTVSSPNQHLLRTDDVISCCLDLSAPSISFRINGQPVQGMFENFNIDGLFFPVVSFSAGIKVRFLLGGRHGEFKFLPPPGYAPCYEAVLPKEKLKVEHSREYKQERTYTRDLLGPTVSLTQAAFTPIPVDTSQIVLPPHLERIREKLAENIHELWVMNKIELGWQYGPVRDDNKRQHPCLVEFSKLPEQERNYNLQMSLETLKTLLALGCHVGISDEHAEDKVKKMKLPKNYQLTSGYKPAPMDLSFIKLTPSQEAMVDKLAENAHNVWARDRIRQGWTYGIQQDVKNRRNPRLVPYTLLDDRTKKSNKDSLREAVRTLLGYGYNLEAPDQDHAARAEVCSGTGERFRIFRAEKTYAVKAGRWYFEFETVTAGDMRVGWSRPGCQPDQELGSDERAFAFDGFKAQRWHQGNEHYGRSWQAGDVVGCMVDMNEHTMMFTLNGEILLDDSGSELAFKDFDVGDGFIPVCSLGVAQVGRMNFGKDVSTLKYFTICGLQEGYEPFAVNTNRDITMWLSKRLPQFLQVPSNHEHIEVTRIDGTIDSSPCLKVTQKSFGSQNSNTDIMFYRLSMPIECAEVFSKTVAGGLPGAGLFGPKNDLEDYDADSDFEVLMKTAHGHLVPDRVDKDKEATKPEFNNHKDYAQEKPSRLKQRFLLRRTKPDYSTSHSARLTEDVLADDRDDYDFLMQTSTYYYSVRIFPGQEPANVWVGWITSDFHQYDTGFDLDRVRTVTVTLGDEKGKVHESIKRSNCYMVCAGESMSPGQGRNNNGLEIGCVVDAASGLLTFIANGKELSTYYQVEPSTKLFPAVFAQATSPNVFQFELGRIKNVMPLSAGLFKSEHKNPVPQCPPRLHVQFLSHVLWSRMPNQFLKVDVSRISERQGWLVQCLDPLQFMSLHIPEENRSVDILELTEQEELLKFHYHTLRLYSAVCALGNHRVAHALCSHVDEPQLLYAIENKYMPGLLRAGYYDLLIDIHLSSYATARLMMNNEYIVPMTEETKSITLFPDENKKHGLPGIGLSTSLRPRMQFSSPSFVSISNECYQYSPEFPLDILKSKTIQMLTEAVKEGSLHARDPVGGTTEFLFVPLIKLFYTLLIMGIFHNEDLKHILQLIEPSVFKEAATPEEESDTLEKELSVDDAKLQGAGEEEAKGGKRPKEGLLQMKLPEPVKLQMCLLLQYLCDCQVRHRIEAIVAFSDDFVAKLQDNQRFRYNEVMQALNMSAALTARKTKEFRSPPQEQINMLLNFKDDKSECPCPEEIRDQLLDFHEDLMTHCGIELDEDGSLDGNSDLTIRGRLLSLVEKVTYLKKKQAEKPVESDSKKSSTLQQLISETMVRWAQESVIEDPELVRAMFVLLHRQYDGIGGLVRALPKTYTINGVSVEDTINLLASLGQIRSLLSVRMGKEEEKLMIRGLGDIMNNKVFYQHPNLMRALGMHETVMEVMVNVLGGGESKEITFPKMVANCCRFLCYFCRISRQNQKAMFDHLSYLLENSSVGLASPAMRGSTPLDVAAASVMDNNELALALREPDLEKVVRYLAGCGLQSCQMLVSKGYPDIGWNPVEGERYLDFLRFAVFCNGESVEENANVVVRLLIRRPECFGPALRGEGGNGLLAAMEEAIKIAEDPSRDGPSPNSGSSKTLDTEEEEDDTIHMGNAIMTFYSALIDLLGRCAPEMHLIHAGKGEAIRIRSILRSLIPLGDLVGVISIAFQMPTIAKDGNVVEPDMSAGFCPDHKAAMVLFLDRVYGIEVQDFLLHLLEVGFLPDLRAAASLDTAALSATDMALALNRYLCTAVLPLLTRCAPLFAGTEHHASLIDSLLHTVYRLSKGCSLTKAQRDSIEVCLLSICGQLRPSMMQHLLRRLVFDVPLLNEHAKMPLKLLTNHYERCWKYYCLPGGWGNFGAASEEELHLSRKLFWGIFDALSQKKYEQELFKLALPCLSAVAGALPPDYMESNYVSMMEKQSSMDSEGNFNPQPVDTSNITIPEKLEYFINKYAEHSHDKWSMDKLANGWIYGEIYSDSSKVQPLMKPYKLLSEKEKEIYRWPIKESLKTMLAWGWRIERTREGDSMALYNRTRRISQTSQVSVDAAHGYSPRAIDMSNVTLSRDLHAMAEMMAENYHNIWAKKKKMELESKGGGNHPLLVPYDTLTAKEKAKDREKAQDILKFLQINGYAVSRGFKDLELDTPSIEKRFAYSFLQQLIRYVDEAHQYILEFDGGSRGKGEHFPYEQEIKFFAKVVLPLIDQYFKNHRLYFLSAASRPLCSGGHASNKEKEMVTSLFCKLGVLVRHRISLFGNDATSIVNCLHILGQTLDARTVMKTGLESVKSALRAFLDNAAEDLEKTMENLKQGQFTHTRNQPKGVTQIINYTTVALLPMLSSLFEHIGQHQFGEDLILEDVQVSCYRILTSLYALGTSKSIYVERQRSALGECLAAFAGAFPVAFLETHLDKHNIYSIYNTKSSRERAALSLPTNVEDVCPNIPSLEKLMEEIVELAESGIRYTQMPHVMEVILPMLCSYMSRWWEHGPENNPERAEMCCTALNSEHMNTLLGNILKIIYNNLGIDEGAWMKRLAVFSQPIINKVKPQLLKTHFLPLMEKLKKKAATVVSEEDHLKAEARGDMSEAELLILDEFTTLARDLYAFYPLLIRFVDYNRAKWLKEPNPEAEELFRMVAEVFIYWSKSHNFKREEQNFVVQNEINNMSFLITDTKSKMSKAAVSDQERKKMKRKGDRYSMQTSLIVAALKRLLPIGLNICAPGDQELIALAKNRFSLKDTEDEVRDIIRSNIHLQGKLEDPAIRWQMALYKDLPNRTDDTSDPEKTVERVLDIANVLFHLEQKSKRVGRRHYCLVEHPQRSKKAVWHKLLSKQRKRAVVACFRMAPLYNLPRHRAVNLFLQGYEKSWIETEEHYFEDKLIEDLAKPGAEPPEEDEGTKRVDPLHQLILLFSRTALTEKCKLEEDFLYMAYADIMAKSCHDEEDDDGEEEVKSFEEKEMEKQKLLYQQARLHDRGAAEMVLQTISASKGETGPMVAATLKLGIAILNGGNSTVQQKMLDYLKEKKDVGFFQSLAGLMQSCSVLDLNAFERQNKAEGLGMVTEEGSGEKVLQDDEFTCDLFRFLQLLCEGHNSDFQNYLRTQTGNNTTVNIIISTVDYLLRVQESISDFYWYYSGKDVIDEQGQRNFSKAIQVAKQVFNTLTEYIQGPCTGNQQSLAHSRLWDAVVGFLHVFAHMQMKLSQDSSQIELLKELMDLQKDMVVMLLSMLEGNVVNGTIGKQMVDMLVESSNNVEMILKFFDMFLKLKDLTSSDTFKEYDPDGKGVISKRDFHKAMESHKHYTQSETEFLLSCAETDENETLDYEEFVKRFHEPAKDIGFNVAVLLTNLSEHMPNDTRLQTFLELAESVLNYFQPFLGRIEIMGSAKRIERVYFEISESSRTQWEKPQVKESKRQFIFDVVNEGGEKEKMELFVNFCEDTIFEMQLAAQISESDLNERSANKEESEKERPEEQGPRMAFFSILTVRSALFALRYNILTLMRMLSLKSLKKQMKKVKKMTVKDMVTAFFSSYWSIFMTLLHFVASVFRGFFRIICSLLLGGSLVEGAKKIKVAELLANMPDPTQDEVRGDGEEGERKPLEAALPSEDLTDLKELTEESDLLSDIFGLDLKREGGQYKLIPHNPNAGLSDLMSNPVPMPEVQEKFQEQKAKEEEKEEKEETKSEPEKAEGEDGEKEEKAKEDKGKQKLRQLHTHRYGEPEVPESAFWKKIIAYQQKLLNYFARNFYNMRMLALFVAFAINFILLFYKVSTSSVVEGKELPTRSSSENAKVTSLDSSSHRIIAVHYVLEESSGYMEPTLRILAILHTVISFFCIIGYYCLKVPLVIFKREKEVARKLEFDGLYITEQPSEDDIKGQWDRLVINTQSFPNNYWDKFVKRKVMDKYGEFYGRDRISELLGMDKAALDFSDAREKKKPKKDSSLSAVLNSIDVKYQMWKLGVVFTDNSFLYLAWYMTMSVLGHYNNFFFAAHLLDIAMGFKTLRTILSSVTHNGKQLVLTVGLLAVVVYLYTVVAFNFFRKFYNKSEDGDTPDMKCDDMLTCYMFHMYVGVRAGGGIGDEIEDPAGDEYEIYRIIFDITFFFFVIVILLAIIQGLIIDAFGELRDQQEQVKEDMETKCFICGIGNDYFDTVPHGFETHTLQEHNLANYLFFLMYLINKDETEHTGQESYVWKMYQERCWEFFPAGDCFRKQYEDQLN
T1 sequence (P68106 whole entry partner): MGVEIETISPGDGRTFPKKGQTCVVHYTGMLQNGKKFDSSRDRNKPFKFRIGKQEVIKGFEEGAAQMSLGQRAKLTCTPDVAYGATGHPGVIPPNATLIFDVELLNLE

On to `COc1ccc2c(c1)CN(Cc1ccc(C(=O)O)cc1)CCS2` [Compound 1, 4-((7-Methoxy-2,3-dihydrobenzo[f][1,4]thiazepin-4(5H)-yl)methyl)benzoic acid], for which the “binding of calstabin2 to PKA-phosphorylated RyR2” value is “prevented the dissociation of calstabin2 from PKA-phosphorylated RyR2 and/or enhanced the (re)binding of calstabin2 to PKA-phosphorylated RyR”.
